Values quoted from earlier work as cited in patent publication US5654277A, “Peptides having thrombospondin-like activity and their therapeutic use” (W. R. Grace & Co.-Conn., priority 1995, dated 1997).

Test system: B16-F10 murine melanoma cells
Conditions: C57BL/6 mice

Row | Substance | inhibition of lung colony formation / metastasis
1 | YIGSR | dramatically inhibited B16-F10 melanoma cell metastasis
2 | GRGDS | dramatically inhibited the formation of lung colonies
